Assay results as given in US20040086901A1, “Database for analyzing gene function and method of analyzing gene function by dspa” (priority 2000, published 2004).

Columns and labels:
Assay type in all cases: cell-based, mouse
[1] = system: NIH3T3 cells overexpressing Ha-ras; experiment: MTT cell viability, drug sensitivity of Ha-ras overexpressing cells vs parental line; conditions: Ha-ras high-expressing cells / parental cell line, 3 to 4 days
Procedure, shortened: (§1)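 NIH3T3 high expressers vs parental; 2-fold serial dilution of drugs (DMSO stocks), 9 points; 10% CS-DMEM; 3–4 d culture; MTT 4 h 37 °C, stop with 0.04N HCl/isopropanol; A574/655. Readout is log(IC40 ratio).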

[2] = system: NIH3T3 cells overexpressing v-src; experiment: MTT cell viability, v-src overexpressing cells vs parental line; conditions: v-src high-expressing cells / parental cell line, 3 to 4 days
Procedure, shortened: (§2)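 Stable NIH3T3 transfectants (cDNA in pRc-CMV-type vector, G-418-selected, high expressers picked by Western blot) and parental cells were seeded at 1×10^5 cells/ml into twofold serial drug dilutions and grown 3–4 days. MTT formazan was read at 574/655 nm, and log ratios of IC40 values were derived.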

[3] = system: NIH3T3 cells overexpressing p16/INK4A; experiment: MTT cell viability, p16/INK4A overexpressing cells vs parental line; conditions: p16/INK4A high-expressing cells / parental cell line, 3 to 4 days
Procedure, shortened: as §2

[4] = system: NIH3T3 cells overexpressing Bax; experiment: MTT cell viability, Bax overexpressing cells vs parental line; conditions: 3 to 4 days
Procedure, shortened: as §1

[5] = system: NIH3T3 cells overexpressing TK; experiment: MTT cell viability, TK overexpressing cells vs parental line; conditions: TK high-expressing cells / parental cell line, 3 to 4 days
Procedure, shortened: as §2

[6] = system: NIH3T3 cells overexpressing DAN; experiment: MTT cell viability, DAN overexpressing cells vs parental line; conditions: DAN high-expressing cells / parental cell line, 3 to 4 days
Procedure, shortened: as §2

[7] = system: NIH3T3 cells overexpressing Regucalcin; experiment: MTT cell viability, Regucalcin overexpressing cells vs parental line; conditions: Regucalcin high-expressing cells / parental cell line, 3 to 4 days
Procedure, shortened: as §2

[8] = system: NIH3T3 cells overexpressing cystatin E; experiment: MTT cell viability, cystatin E overexpressing cells vs parental line; conditions: cystatin E high-expressing cells / parental cell line, 3 to 4 days
Procedure, shortened: as §2

[9] = system: NIH3T3 cells overexpressing caspase-3; experiment: MTT cell viability, caspase-3 overexpressing cells vs parental line; conditions: caspase-3 high-expressing cells / parental cell line, 3 to 4 days
Procedure, shortened: as §1

[10] = system: NIH3T3 cells overexpressing RhoA; experiment: MTT cell viability, RhoA overexpressing cells vs parental line; conditions: RhoA high-expressing cells / parental cell line, 3 to 4 days
Procedure, shortened: as §2

[11] = system: NIH3T3 cells overexpressing PDGF-R-Del; experiment: MTT cell viability, PDGF-R-Del overexpressing cells vs parental line; conditions: PDGF-R-Del high-expressing cells / parental cell line, 3 to 4 days
Procedure, shortened: as §2

[12] = system: NIH3T3 cells overexpressing PKCalpha-KN; experiment: MTT cell viability, PKCalpha-KN overexpressing cells vs parental line; conditions: 3 to 4 days
Procedure, shortened: as §1

[13] = system: NIH3T3 cells overexpressing PKCepsilon-KN; experiment: MTT cell viability, PKCepsilon-KN overexpressing cells vs parental line; conditions: 3 to 4 days
Procedure, shortened: as §1

[14] = system: NIH3T3 cells, TPA (PKC downreg); experiment: MTT cell viability, TPA (PKC downreg) cells vs parental line; conditions: 3 to 4 days
[15] = system: NIH3T3 cells overexpressing p38-DN; experiment: MTT cell viability, p38-DN overexpressing cells vs parental line; conditions: p38-DN high-expressing cells / parental cell line, 3 to 4 days
Procedure, shortened: as §1

[16] = system: NIH3T3 cells overexpressing HSP4O; experiment: MTT cell viability, HSP4O overexpressing cells vs parental line; conditions: HSP4O high-expressing cells / parental cell line, 3 to 4 days
Procedure, shortened: as §2

[17] = system: NIH3T3 cells overexpressing CaMKIIa; experiment: MTT cell viability, CaMKIIa overexpressing cells vs parental line; conditions: CaMKIIa high-expressing cells / parental cell line, 3 to 4 days
Procedure, shortened: as §1

[18] = system: NIH3T3 cells overexpressing HNF1; experiment: MTT cell viability, HNF1 overexpressing cells vs parental line; conditions: HNF1 high-expressing cells / parental cell line, 3 to 4 days
Procedure, shortened: as §1

[19] = system: NIH3T3 cells overexpressing HNF4; experiment: MTT cell viability, HNF4 overexpressing cells vs parental line; conditions: HNF4 high-expressing cells / parental cell line, 3 to 4 days
Procedure, shortened: as §1

[20] = Bax (first of two Bax lines) high-expressing cells / parental cell line
[21] = Bax (second of two Bax lines) high-expressing cells / parental cell line
[22] = PKCalpha-KN (first of two lines) high-expressing cells / parental cell line
[23] = PKCalpha-KN (second of two lines) high-expressing cells / parental cell line
[24] = PKCepsilon-KN (first of two lines) high-expressing cells / parental cell line
[25] = PKCepsilon-KN (second of two lines) high-expressing cells / parental cell line

SMILES	logarithmic value of ratio of IC40 values [1]	logarithmic value of ratio of IC40 values [2]	logarithmic value of ratio of IC40 values [3]	logarithmic value of ratio of IC40 values [4, 20]	logarithmic value of ratio of IC40 values [4, 21]	logarithmic value of ratio of IC40 values [5]	logarithmic value of ratio of IC40 values [6]	logarithmic value of ratio of IC40 values [7]	logarithmic value of ratio of IC40 values [8]	logarithmic value of ratio of IC40 values [9]	logarithmic value of ratio of IC40 values [10]	logarithmic value of ratio of IC40 values [11]	logarithmic value of ratio of IC40 values [12, 22]	logarithmic value of ratio of IC40 values [12, 23]	logarithmic value of ratio of IC40 values [13, 24]	logarithmic value of ratio of IC40 values [13, 25]	logarithmic value of ratio of IC40 values [14]	logarithmic value of ratio of IC40 values [15]	logarithmic value of ratio of IC40 values [16]	logarithmic value of ratio of IC40 values [17]	other results
C=C[C@@]1(C)CC(=O)[C@]2(O)[C@@]3(C)[C@@H](O)CCC(C)(C)[C@@H]3[C@H](O)[C@H](OC(C)=O)[C@@]2(C)O1 [Forskolin, forskolin]	0.26	−0.46	0.70	0.00	−0.26	0.56	0.88	−0.10	0.29	1.12	0.47	0.51	−0.47	0.00	0.00	0.00	−0.17	−0.46	−0.39	0.00	logarithmic value of ratio of IC40 values [18]: 1.15; logarithmic value of ratio of IC40 values [19]: 0.00
CN(C)CCCn1cc(C2=C(c3c[nH]c4ccccc34)C(=O)NC2=O)c2ccccc21 [GF109203X]	−0.39	−0.29	0.48	0.22	0.27	0.00	0.65	−0.05	0.27	0.82	0.24	0.91	0.22	0.62	−0.17	0.32	0.09	0.58	−0.07	0.04	logarithmic value of ratio of IC40 values [18]: 0.345; logarithmic value of ratio of IC40 values [19]: 0.40
C[C@@H]1O[C@@H](O[C@H]2C[C@@H](O)[C@]3(CO)[C@H]4[C@H](O)C[C@]5(C)[C@@H](C6=CC(=O)OC6)CC[C@]5(O)[C@@H]4CC[C@]3(O)C2)[C@H](O)[C@H](O)[C@H]1O [Ouabain, ouabain]	0.32	0.00	0.63	0.40	0.00	0.00	0.74	−0.12	0.49	0.65	0.15	0.19	0.00	0.06	−0.15	−0.12	−0.08	0.41	0.00	0.23	logarithmic value of ratio of IC40 values [18]: 0.103; logarithmic value of ratio of IC40 values [19]: −0.08
